From US20210015098A1, “MOLECULES HAVING PESTICIDAL UTILITY, AND INTERMEDIATES, COMPOSITIONS, AND PROCESSES, RELATED THERETO” (DOW AGROSCIENCES LLC, priority 2018, published 2021)

What was measured:
Type in all cases: in vivo
[1] = tested on: Yellow Fever Mosquito (Aedes aegypti, AEDSAE); conditions: for YFM % Control (or Mortality) rating: about 1 day-old larvae, 96-well plate, room temperature, 3 days; for YFM (rating): Yellow Fever Mosquito, Table ABC Biological Results
Procedure: Certain molecules disclosed in this document were tested against YFM using procedures described in the following paragraph. In the reporting of the results, the “GPA & YFM Rating Table” was used (See Table Section).
Master plates containing 400 μg of a molecule dissolved in 100 μL of dimethyl sulfoxide (DMSO) (equivalent to a 4000 ppm solution) are used. A master plate of assembled molecules contains 15 μL per well. To this plate, 135 μL of a 90:10 water/acetone mixture is added to each well. A robot (Biomek® NXP Laboratory Automation Workstation) is programmed to dispense 15 μL aspirations from the master plate into an empty 96-well shallow plate (“daughter” plate). There are 6 reps (“daughter” plates) created per master. The created “daughter” plates are then immediately infested with YFM larvae.
The day before plates are to be treated, mosquito eggs are placed in Millipore water containing liver powder to begin hatching (4 g into 400 mL). After the “daughter” plates are created using the robot, they are infested with 220 μL of the liver powder/larval mosquito mixture (about 1 day-old larvae). After plates are infested with mosquito larvae, a non-evaporative lid is used to cover the plate to reduce drying. Plates are held at room temperature for 3 days prior to grading. After 3 days, each well is observed and scored based on mortality. The results are indicated in the table entitled “Table ABC: Biological Results” (See Table Section).

[2] = tested on: Beet Armyworm (Spodoptera exigua, LAPHEG); assay: Bioassays on Beet Armyworm (BAW), 128-well diet tray assay; conditions: for mortality at 50 µg/cm2: 168 h, 50 μg/cm^2 on artificial diet, second instar larvae, 25° C., five to seven days, read-out: BAW % Control (or Mortality) rating; for pest or weed control at 50 µg/cm2: Beet Armyworm, Table ABC Biological Results, read-out: BAW (rating)
Procedure: (§1) Certain molecules disclosed in this document were tested against BAW and CL using procedures described in the following examples. In the reporting of the results, the “BAW & CL Rating Table” was used (See Table Section).
Bioassays on BAW were conducted using a 128-well diet tray assay. One to five second instar BAW larvae were placed in each well (3 mL) of the diet tray that had been previously filled with 1 mL of artificial diet to which 50 μg/cm^2 of the test molecule (dissolved in 50 μL of 90:10 acetone-water mixture) had been applied (to each of eight wells) and then allowed to dry. Trays were covered with a clear self-adhesive cover, vented to allow gas exchange, and held at 25° C., 14:10 light-dark for five to seven days. Percent mortality was recorded for the larvae in each well; activity in the eight wells was then averaged. The results are indicated in the table entitled “Table ABC: Biological Results” (See Table Section).

[3] = tested on: Cabbage Looper (Trichoplusia ni, TRIPNI); assay: Bioassays on Cabbage Looper (CL), 128-well diet tray assay; conditions: for mortality at 50 µg/cm2: 168 h, 50 μg/cm^2 on artificial diet, second instar larvae, 25° C., five to seven days, read-out: CL % Control (or Mortality) rating; for pest or weed control at 50 µg/cm2: Cabbage Looper, Table ABC Biological Results, read-out: CL (rating)
Procedure: as §1
Bioassays on CL were conducted using a 128-well diet tray assay. One to five second instar CL larvae were placed in each well (3 mL) of the diet tray that had been previously filled with 1 mL of artificial diet to which 50 μg/cm^2 of the test molecule (dissolved in 50 μL of 90:10 acetone-water mixture) had been applied (to each of eight wells) and then allowed to dry. Trays were covered with a clear self-adhesive cover, vented to allow gas exchange, and held at 25° C., 14:10 light-dark for five to seven days. Percent mortality was recorded for the larvae in each well; activity in the eight wells was then averaged. The results are indicated in the table entitled “Table ABC: Biological Results” (See Table Section).

SMILES	YFM % Control (or Mortality) rating [1]	mortality at 50 µg/cm2 [2]	mortality at 50 µg/cm2 [3]	YFM (rating) [1]	pest or weed control at 50 µg/cm2 [2]	pest or weed control at 50 µg/cm2 [3]
Nc1c(F)ccc(NC(=O)c2cc(NC(=O)[C@H]3[C@H](c4cc(C(F)(F)F)cc(C(F)(F)F)c4)C3(Cl)Cl)ccc2Cl)c1F (relative stereo) [DP7, trans-N-(3-Amino-2,4-difluorophenyl)-5-(3-(3,5-bis(trifluoromethyl)phenyl)-2,2-dichlorocyclopropane-1-carboxamido)-2-chlorobenzamide]	A (80-100)	50 to 100%	50 to 100%			
CC(C)(C)OC(=O)N(C(=O)OC(C)(C)C)c1c(F)ccc(NC(=O)c2cc(NC(=O)[C@H]3[C@H](c4cc(Cl)c(Cl)c(Cl)c4)C3(Cl)Cl)ccc2Cl)c1F [DP1, tert-butyl-N-((tert-butoxy)carbonyl)-N-(3-(2-chloro-5-((1R,3R)-2,2-dichloro-3-(3,4,5-trichlorophenyl)cyclopropane-1-carboxamido)benzamido)-2,6-difluorophenyl)carbamate]	D (No activity noticed in this bioassay)	0 to 50%	0%			
Nc1c(F)ccc(NC(=O)c2cc(NC(=O)[C@H]3[C@H](c4cc(Cl)c(Cl)c(Cl)c4)C3(Cl)Cl)ccc2Cl)c1F [DP2, N-(3-amino-2,4-difluorophenyl)-2-chloro-5-((1R,3R)-2,2-dichloro-3-(3,4,5-trichlorophenyl)cyclopropane-1-carboxamido)benzamide]	A (80-100)	50 to 100%	50 to 100%			
Nc1c(F)ccc(NC(=O)c2cc(NC(=O)[C@H]3[C@H](c4ccc(Cl)c(Cl)c4)C3(Cl)Cl)ccc2Cl)c1F [DP3, N-(3-Amino-2,4-difluorophenyl)-2-chloro-5-((1R,3R)-2,2-dichloro-3-(3,4-dichlorophenyl)cyclopropane-1-carboxamido)benzamide]	A (80-100)	50 to 100%	50 to 100%			
Nc1c(F)ccc(NC(=O)c2cc(NC(=O)[C@H]3[C@H](c4ccc(F)c(Cl)c4)C3(Cl)Cl)ccc2Cl)c1F [DP4, N-(3-Amino-2,4-difluorophenyl)-2-chloro-5-((1R,3R)-2,2-dichloro-3-(3-chloro-4-fluorophenyl)cyclopropane-1-carboxamido)benzamide]	A (80-100)	50 to 100%	50 to 100%			
Nc1c(F)ccc(NC(=O)c2cc(NC(=O)[C@H]3[C@H](c4ccc(F)c(C(F)(F)F)c4)C3(Cl)Cl)ccc2Cl)c1F [DP5, N-(3-Amino-2,4-difluorophenyl)-2-chloro-5-((1R,3R)-2,2-dichloro-3-(4-fluoro-3-(trifluoromethyl)phenyl)cyclopropanecarboxamido)benzamide]	A (80-100)	50 to 100%	50 to 100%			
Nc1c(F)ccc(NC(=O)c2cc(NC(=O)[C@H]3[C@H](c4cc(F)cc(C(F)(F)F)c4)C3(Cl)Cl)ccc2Cl)c1F [DP8, N-(3-Amino-2,4-difluorophenyl)-2-chloro-5-((1R,3R)-2,2-dichloro-3-(3-fluoro-5-(trifluoromethyl)phenyl)cyclopropane-1-carboxamido)benzamide]	A (80-100)	50 to 100%	50 to 100%			
O=C(CSCC(F)(F)F)Nc1c(F)ccc(NC(=O)c2cc(NC(=O)[C@H]3[C@H](c4ccc(F)c(C(F)(F)F)c4)C3(Cl)Cl)ccc2Cl)c1F [F15, 2-chloro-5-((R,3R)-2,2-dichloro-3-(4-fluoro-3-(trifluoromethyl)phenyl)cyclopropane-1-carboxamido)-N-(2,4-difluoro-3-(2-((2,2,2-trifluoroethyl)thio)acetamido)phenyl)benzamide]				A (80-100)	50 to 100%	50 to 100%
CC(SC(F)(F)F)C(=O)Nc1c(F)ccc(NC(=O)c2cc(NC(=O)[C@H]3[C@H](c4ccc(F)c(C(F)(F)F)c4)C3(Cl)Cl)ccc2Cl)c1F (stereo partly drawn) [F16, 2-Chloro-5-((1R,3R)-2,2-dichloro-3-(4-fluoro-3-(trifluoromethyl)phenyl)cyclopropane-1-carboxamido)-N-(2,4-difluoro-3-(2-((trifluoromethyl)thio)propanamido)phenyl)benzamide]				A (80-100)	50 to 100%	50 to 100%
O=C(CSC(F)(F)F)Nc1c(F)ccc(NC(=O)c2cc(NC(=O)[C@H]3[C@H](c4ccc(F)c(C(F)(F)F)c4)C3(Cl)Cl)ccc2Cl)c1F [F17, 2-Chloro-5-((1R,3R)-2,2-dichloro-3-(4-fluoro-3-(trifluoromethyl)phenyl)cyclopropane-1-carboxamido)-N-(2,4-difluoro-3-(2-((trifluoromethyl)thio)acetamido)phenyl)benzamide]				A (80-100)	50 to 100%	50 to 100%
CCSC(C)C(=O)Nc1c(F)ccc(NC(=O)c2cc(NC(=O)[C@H]3[C@H](c4ccc(F)c(C(F)(F)F)c4)C3(Cl)Cl)ccc2Cl)c1F (stereo partly drawn) [F18, 2-Chloro-5-((1R,3R)-2,2-dichloro-3-(4-fluoro-3-(trifluoromethyl)phenyl)cyclopropane-1-carboxamido)-N-(3-(2-(ethylthio)propanamido)-2,4-difluorophenyl)benzamide]				A (80-100)	50 to 100%	50 to 100%
CCSCC(=O)Nc1c(F)ccc(NC(=O)c2cc(NC(=O)[C@H]3[C@H](c4ccc(F)c(C(F)(F)F)c4)C3(Cl)Cl)ccc2Cl)c1F [F19, 2-Chloro-5-((1R,3R)-2,2-dichloro-3-(4-fluoro-3-(trifluoromethyl)phenyl)cyclopropane-1-carboxamido)-N-(3-(2-(ethylthio)acetamido)-2,4-difluorophenyl)benzamide]				A (80-100)	50 to 100%	50 to 100%
O=C(CCSCCC(F)(F)F)Nc1c(F)ccc(NC(=O)c2cc(NC(=O)[C@H]3[C@H](c4ccc(F)c(C(F)(F)F)c4)C3(Cl)Cl)ccc2Cl)c1F [F21, 2-Chloro-5-((1R,3R)-2,2-dichloro-3-(4-fluoro-3-(trifluoromethyl)phenyl)cyclopropane-1-carboxamido)-N-(2,4-difluoro-3-(3-((3,3,3-trifluoropropyl)thio)propanamido)phenyl)benzamide]				A (80-100)	50 to 100%	50 to 100%
CCSCCC(=O)Nc1c(F)ccc(NC(=O)c2cc(NC(=O)[C@H]3[C@H](c4ccc(F)c(C(F)(F)F)c4)C3(Cl)Cl)ccc2Cl)c1F [F23, 2-Chloro-5-((1R,3R)-2,2-dichloro-3-(4-fluoro-3-(trifluoromethyl)phenyl)cyclopropane-1-carboxamido)-N-(3-(3-(ethylthio)propanamido)-2,4-difluorophenyl)benzamide]				A (80-100)	50 to 100%	50 to 100%
O=C(CSCC(F)(F)F)Nc1ccc(NC(=O)c2cc(NC(=O)[C@H]3[C@H](c4ccc(F)c(C(F)(F)F)c4)C3(Cl)Cl)ccc2Cl)c(F)c1 [F52, 2-Chloro-5-((1R,3R)-2,2-dichloro-3-(4-fluoro-3-(trifluoromethyl)phenyl)cyclopropane-1-carboxamido)-N-(2-fluoro-4-(2-((2,2,2-trifluoroethyl)thio)acetamido)phenyl)benzamide]					50 to 100%	50 to 100%
